Reference: PubChem BioAssay AID588780 (Sanford-Burnham Center for Chemical Genomics, 2011)
Activity calls are given as the source filed them.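 The calls were made as follows: active = compounds whose fitted half-maximal concentration in the cell-protection dose series is at or below a set limit; inactive = the rest.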

The compounds below were run on H9c2 cardiomyocytes, 2-deoxyglucose stress, ATP luminescence, 2 h (assay: H9c2 cell survival under 2-deoxyglucose stress – uHTS hits, dose response (AID 588780)).
In the case of `COc1ccc(-c2cc3nc(-c4ccccc4)cc(N4CCN(C(=O)c5ccoc5)CC4)n3n2)cc1`, the IC50 is reported as 6.39 µM. In the case of `FC(F)(F)c1nnc2ccc(N3CCCC3)nn12`, the IC50 is reported as > 79 µM (inactive). In the case of `O=C(COC(=O)c1cc(-c2cccnc2)nc2ccccc12)Nc1ccc(F)cc1F`, the IC50 is reported as 23.2 µM. With `O=C1c2cccnc2Oc2ccc(Cl)cc2N1Cc1ccc(F)cc1` the IC50 was > 79 µM (inactive). For `CC(C)(C)N=Cc1c(O)ccc2oc3c(c12)CCCC3`, the IC50 was > 79 µM (inactive). In the case of `CN1CCc2nc3ccccc3c(C(=O)OCC(=O)N(CCC#N)c3ccccc3)c2C1`, the IC50 is reported as 67.6 µM (inactive). With `CC(=NO)C1CCC2C3CCC4CC(=NO)CCC4(C)C3C(C)(O)CC12C` (configuration not stated) the IC50 was 14.9 µM. For `NC(=O)c1ccc(Nc2nnc(-c3ccc(O)cc3)c3ccccc23)cc1`, the IC50 was 29.6 µM. `COc1cc(/C=C/C(=O)Nc2ccc3nc4n(c(=O)c3c2)CCCC4)cc(OC)c1OC` showed an IC50 of 24.2 µM. In the case of `O=C(CN1C(=O)CCC1=O)Nc1nc(-c2ccccn2)cs1`, the IC50 is reported as 43.2 µM (inactive). `Cc1ccc(C(=O)N/N=C\c2ccc(-c3ccc(Cl)cc3)o2)cn1` gave an IC50 of 9.3 µM. Work on `COC(=O)c1ccc(C(=O)OC)c(NC(=O)COC(=O)C23CC4CC(CC(O)(C4)C2)C3)c1` yielded an IC50 of 9.67 µM. With `Cc1ccc(C(=O)Nc2cccc(C(F)(F)F)c2)cc1NC(=O)c1csc(-c2ccncc2)n1` the IC50 was > 79 µM (inactive). In the case of `COc1ccc(-c2cc(=O)c3ccccc3[nH]2)cc1`, the IC50 is reported as 65 µM (inactive). With `CC(C)COc1nc2ccccc2c(=O)n1OCC(=O)O` the IC50 was > 79 µM (inactive). With `COc1cc(NC(=O)c2cc3c(C)nc4ccccc4c3o2)cc(OC)c1OC` the IC50 was > 79 µM (inactive). For `COc1ccc(N(C(=O)c2cccnc2)S(=O)(=O)c2cccs2)cc1`, the IC50 was > 79 µM (inactive). For `CC1(C)CC(=O)C2=C(C1)N(CCN1CCOCC1)C1=C(C(=O)CC(C)(C)C1)C2c1ccc(Cl)cc1`, the IC50 was 31.3 µM (inactive). For `O=[N+]([O-])c1ccc(-c2nc(Nc3ccc(O)cc3)c3ccccc3n2)cc1`, the IC50 was > 79 µM (inactive). For `CCCN1C(=O)/C(=C/c2nc3ccccc3c(=O)[nH]2)c2ccccc21`, the IC50 was 11.2 µM. `O=C(c1ccco1)N1CCN(C(=O)c2cc(-c3ccncc3)nc3ccc(Br)cc23)CC1` showed an IC50 of 13.8 µM. For `COc1cc(C(=O)NCCCNc2nc3cc(C)cc(C)c3cc2C#N)cc(OC)c1OC`, the IC50 was 45.6 µM (inactive). `CCOC(=O)N1CCN(C(=O)CSc2nc3c(cnn3-c3ccc(C)cc3)c(=O)[nH]2)CC1` was tested, and the IC50 was > 79 µM (inactive). `N#CCCn1c(SCC(=O)c2c[nH]c3ccccc23)nc2ccccc21` was tested, and the IC50 was 49.4 µM (inactive). With `COc1ccc(C2CCCCCN2C(=O)C2CCN(S(=O)(=O)c3cccc(C(C)=O)c3)CC2)cc1` (configuration not stated) the IC50 was > 79 µM (inactive). In the case of `O=C(NCc1ccco1)c1cc(-c2cccnc2)nc2ccc(Cl)cc12`, the IC50 is reported as > 79 µM (inactive). `Oc1ccc(Br)cc1C=Nc1ccc2[nH]ncc2c1` was tested, and the IC50 was > 79 µM (inactive). `O=C(N/N=C/c1c(O)n(-c2ccccc2Cl)c(=O)c2ccccc12)C1COc2ccccc2O1` (configuration not stated) gave an IC50 of 16.2 µM. With `Cn1c(=O)c2[nH]c(NN=Cc3ccc(Br)cc3)nc2n(C)c1=O` the IC50 was > 79 µM (inactive). In the case of `CCn1nc(C(=O)Nc2nc(-c3ccccn3)cs2)c2ccccc2c1=O`, the IC50 is reported as > 79 µM (inactive). `O=C(CN(c1ccc2c(c1)OCCO2)S(=O)(=O)c1ccccc1)Nc1ccc2c(c1)OCO2` was tested, and the IC50 was > 79 µM (inactive). Work on `COc1ccc(-c2ccc(Nc3ccc(S(=O)(=O)N4CCCC4)cc3)nn2)cc1OC` yielded an IC50 of 25 µM. `CCCCn1c(=NC(=O)c2cccnc2)c(C#N)cc2c(=O)n3cccc(C)c3nc21` was tested, and the IC50 was 33.6 µM (inactive). `COc1cc(-c2cc(NC=O)c3ncc(-c4ccc(C(C)=O)cc4)n3c2)ccc1O` was tested, and the IC50 was > 79 µM (inactive). In the case of `CN(C)Cc1ccc(-c2nc3cccc4c3n2CCNC4=O)cc1`, the IC50 is reported as 49.2 µM (inactive). `CC(=O)c1ccc(-c2cnc3c(NC=O)cc(-c4cccc(C(=O)N(C)C)c4)cn23)cc1` showed an IC50 of 14 µM. With `CC(C)(C)OC(=O)NCc1ccc(NC(=O)c2nc[nH]c2C(=O)NCCCCCCNC(=O)c2[nH]cnc2C(=O)Nc2ccc(CNC(=O)OC(C)(C)C)cc2)cc1` the IC50 was > 79 µM (inactive). In the case of `COc1ccccc1CN(C(=O)CNC(=O)c1ccco1)C(C(=O)NCC1CCCO1)c1ccccc1` (configuration not stated), the IC50 is reported as 11.6 µM. With `COc1cccc(-c2cnc3c(NC(C)=O)cc(-c4cc(OC)c(OC)c(OC)c4)cn23)c1` the IC50 was > 79 µM (inactive). `N#CC(c1nc2ccccc2nc1N1CCCC1)S(=O)(=O)c1cccs1` (configuration not stated) was tested, and the IC50 was 34.1 µM (inactive). In the case of `CCCCC(=O)Nc1cc(C)c2c(=O)oc3ccccc3c2n1`, the IC50 is reported as > 79 µM (inactive). In the case of `COc1cccc(-c2cnc3c(NC=O)cc(-c4ccc(O)c(OC)c4)cn23)c1`, the IC50 is reported as > 79 µM (inactive). With `Cn1c(=O)[nH]c(=O)c2c1nc(NCCc1ccccc1)n2CC(O)COc1ccccc1` (configuration not stated) the IC50 was > 79 µM (inactive). `CC1(C)CC2C1CCC1(O)CC2(C)CCC1N(O)c1ccc(C(=O)NCCO)cn1` (configuration not stated) gave an IC50 of 28.5 µM. With `CC1Cc2ccccc2N1C(=O)COC(=O)c1n[nH]c(=O)c2ccccc12` (configuration not stated) the IC50 was > 79 µM (inactive). In the case of `COc1ccc(-c2cc(=O)oc3cc(OC(=O)C4CCCCC4)ccc23)cc1`, the IC50 is reported as 31.7 µM (inactive). In the case of `COc1cccc(C(=O)CSc2nnc(-c3cc(OC)c(OC)c(OC)c3)o2)c1`, the IC50 is reported as > 79 µM (inactive). With `CCn1c(=O)c(C(=O)NC(C)c2ccccc2)c(O)c2ccccc21` (configuration not stated) the IC50 was > 79 µM (inactive). With `O=c1[nH]c2cc3c(cc2cc1CN(Cc1nnnn1CC1CCCO1)C1CCCCC1)OCO3` (configuration not stated) the IC50 was 57.1 µM (inactive). In the case of `CCOC(=O)c1nc(Nc2ccc(C(=O)OC)cc2)c2ccccc2n1`, the IC50 is reported as > 79 µM (inactive). For `C[C@@H](NC(=O)c1nc[nH]c1C(=O)NCC(=O)OCc1ccccc1)c1ccccc1`, the IC50 was > 79 µM (inactive). With `O=C(CSc1ccc2nnc(-c3ccc(F)cc3)n2n1)N1CCCc2ccccc21` the IC50 was 13.4 µM. In the case of `O=C(CCc1nc2ccccc2c(=O)[nH]1)NNC(=O)c1ccccc1Cl`, the IC50 is reported as > 79 µM (inactive). `COc1ccccc1CN(C)C(=O)c1cc(-c2cc(OC)c(OC)c(OC)c2)nc2ccccc12` showed an IC50 of 6.57 µM. `COc1ccc(NC(=O)C(OC(=O)c2ccc([N+](=O)[O-])o2)c2ccccc2)cc1Cl` (configuration not stated) was tested, and the IC50 was > 79 µM (inactive). `Cc1nc2c(c(=O)n1CCC1=CCCCC1)c1nc3ccccc3nc1n2/N=C/c1ccccc1` was tested, and the IC50 was 11.7 µM. Compound `COc1cccc(-c2nn3c(-c4ccccn4)nnc3s2)c1` has an IC50 of 13.6 µM. For `O=C(Nc1nnc(C2CC2)s1)c1cc(-c2ccccc2)nn1-c1ccccc1`, the IC50 was > 79 µM (inactive). Work on `Cc1ccc(-c2nn3c(-c4ccco4)nnc3c3ccccc23)cc1S(=O)(=O)NCC1CCCO1` (configuration not stated) yielded an IC50 of 23.3 µM. For `C/C(=N/NC(=O)c1cccs1)c1cccc(NC(=O)C2CC2)c1`, the IC50 was > 79 µM (inactive). `CCN(C[C@H]1N[C@@](CC)(C(=O)OC)[C@H]2C(=O)N(Cc3ccccc3)C(=O)[C@@H]12)S(=O)(=O)c1ccc(F)cc1` was tested, and the IC50 was > 79 µM (inactive). In the case of `O=C(NCCc1c[nH]c2ccccc12)C(=O)NCC(c1ccco1)N1CCN(c2ccccc2F)CC1` (configuration not stated), the IC50 is reported as > 79 µM (inactive). In the case of `Cc1sc2nc(CSCC(=O)N(C)c3ccccc3)[nH]c(=O)c2c1C`, the IC50 is reported as 29.8 µM. `COc1ccccc1NS(=O)(=O)c1cccc(C(=O)N/N=C/c2c(CO)cnc(C)c2O)c1` was tested, and the IC50 was 31.8 µM (inactive). `CCC1(CC)NC(=O)N(CC(=O)OCC(=O)Nc2ccccc2[N+](=O)[O-])C1=O` was tested, and the IC50 was > 79 µM (inactive). With `COc1ccc(COc2cc(-c3cccc(OC)c3)nc3ccc(NC(=O)c4cccnc4)cc23)cc1` the IC50 was > 79 µM (inactive). `CCOC(=O)c1c(NC(=O)COC(=O)c2ccc(O)cc2)sc(C(=O)N(C)C)c1C` was tested, and the IC50 was > 79 µM (inactive). For `COc1cccc(/C=N/Nc2nc3ccccc3n3cnnc23)c1`, the IC50 was > 79 µM (inactive). `O=C(COc1cccc(NC(=O)c2cccc([N+](=O)[O-])c2)c1)c1ccc(F)cc1` was tested, and the IC50 was > 79 µM (inactive). In the case of `Cc1c(C(=O)Nc2ccc3nc(N4CCOCC4)sc3c2)oc2ccccc12`, the IC50 is reported as > 79 µM (inactive). For `C[C@H]1Cn2cnc(C(=O)N[C@@H](Cc3c[nH]c4ccccc34)C(=O)OC(C)(C)C)c2C(=O)N1`, the IC50 was 21 µM. For `O=C(Nc1cccc(Cl)c1)c1nc[nH]c1C(=O)NCCCNC(=O)c1[nH]cnc1C(=O)Nc1cccc(Cl)c1`, the IC50 was > 79 µM (inactive). With `Cn1c(=O)n(CCc2ccccc2)c(=O)c2c1nc1n2CCCN1Cc1ccccc1` the IC50 was 14.1 µM. In the case of `COc1cc2ccnc(C=O)c2cc1OC`, the IC50 is reported as > 79 µM (inactive). With `COc1ccc(CCNC(=O)c2cc(C(=O)c3cc(C)ccc3O)cn(CCc3ccc(OC)cc3)c2=O)cc1` the IC50 was > 79 µM (inactive). In the case of `Nc1nonc1-n1nnc(C(=O)N/N=C/c2ccccn2)c1CNc1ccccc1`, the IC50 is reported as 37.7 µM (inactive). In the case of `c1ccc(-c2cn3c(n2)CCc2ccc4cccnc4c2-3)cc1`, the IC50 is reported as > 79 µM (inactive). In the case of `O=C(COC(=O)CCc1nc2ccccc2c(=O)[nH]1)NC(c1ccccc1)c1ccccc1`, the IC50 is reported as > 79 µM (inactive). In the case of `COc1ccccc1NC(=O)COc1cccc2c1CCNC2=O`, the IC50 is reported as > 79 µM (inactive). With `COc1ccc(C(=O)NNC(=O)c2ccc3ccccc3n2)cc1` the IC50 was > 79 µM (inactive). For `COc1cc(-c2cc(NC=O)c3ncc(-c4cccc(C(F)(F)F)c4)n3c2)cc(OC)c1OC`, the IC50 was > 79 µM (inactive). Compound `COc1cccc(NC(=O)NC2(C(F)(F)F)Oc3ccccc3O2)c1` has an IC50 of 16.9 µM. `O=C(CC1CC2CCC1C2)Nc1nc(-c2ccccn2)cs1` (configuration not stated) was tested, and the IC50 was > 79 µM (inactive). In the case of `Brc1cc2c(cc1/C=N/Nc1nc(N3CCCC3)nc(N3CCOCC3)n1)OCO2`, the IC50 is reported as > 79 µM (inactive). Work on `Cc1cc(OCC(=O)N2CCOCC2)cc2oc(=O)c3ccccc3c12` yielded an IC50 of 14.7 µM. With `Cn1nc(C(=O)Nc2nc(-c3ccccn3)cs2)c2ccccc2c1=O` the IC50 was 39.6 µM (inactive). `CCOC(=O)c1cnc(Nc2nc3ccccc3o2)nc1CSc1nnc(C)s1` was tested, and the IC50 was > 79 µM (inactive). With `Cn1ncc(Cl)c1C(=O)N/N=C/c1ccccn1` the IC50 was > 79 µM (inactive). With `COc1cc(/C=N/NC(=O)c2ccncc2)ccc1OC(=O)c1ccccc1Cl` the IC50 was > 79 µM (inactive). With `O=C1N[C@H](Cc2c[nH]c3ccccc23)COC(=O)[C@H](Cc2ccc(F)cc2)C/C=C\C[C@H]1CC(=O)N(CCO)Cc1ccccc1` the IC50 was 17.6 µM. For `O=C(COC(=O)Cc1n[nH]c(=O)c2ccccc12)Nc1ncc(Cl)cc1Cl`, the IC50 was > 79 µM (inactive). `CC(=O)Nc1ccc(C(=O)N/N=C/c2ccccc2OC(=O)c2ccc(Cl)cc2)cc1` gave an IC50 of 11.5 µM.
